{"source": "patent US20250368959A1", "about": "“COMPOSITIONS AND METHODS FOR DIFFERENTIATING STEM CELLS INTO NK CELLS” (CRISPR THERAPEUTICS AG, priority 2022, published 2025)", "type_in_all_cases": "cell-based, human", "key": {"CD56^+ cells": {"system": "CD56^+ cells", "test": "CD45/CD56 expression on day 28 after iPSC-HSPC differentiation optimization", "protocol": "For iPSC-HSPC differentiation optimization, CD45/CD56 expression on day 28 was measured (FIG. 10). The HSPC cells on day 6 were further differentiated to iNK in the StemPro-34-based differentiation media Table 12) in the presence of IL7, IL15, SCF. Flt3lFlt3l, (IL3 was added for days 6-14 only). […] However, it was not an optimal condition as the single cells production and expansion was lower than in conditions in the presence of Activin A molecule (data not shown). Due to low CD56^+ cells formation on day 28, the HSPC to iNK differentiation conditions was optimized."}, "CD45^+CD56^+ cells": {"system": "CD45^+CD56^+ cells", "test": "Effect of CHIR-99021 concentration in NK-MED-005 medium on iNK induction", "settings": "2.5, 3.5 or 4.5 μM in NK-MED-005c, AP2.0, day 20", "protocol": "To determine the optimal concentration of CHIR-99021, different concentrations (2.5 μM, 3.5 μM or 4.5 μM) were added to the NK-MED-005c medium (Table 30) to test their effect on iNK induction. Differentiation proceeded according to Protocol 2 (AP2.0) as described in Example 11. Cells were collected and analyzed using flow cytometry to detect CD45^+CD56^+ cells at differentiation day 20."}, "[1]": {"system": "blood lineage markers, CD33", "test": "Effect of WNT-C59 in NK-MED-006 medium on iNK induction", "settings": "2 μM in NK-MED-006, AP2.0, day 20 cultures", "protocol": "The effect of including WNT-C59 (2 μM) in NK-MED-006 medium during iNK induction using the AP2.0 protocol was examined. […] The addition of WNT-C59 increased proportion of cells expressing non-NK lineage markers."}, "[2]": {"system": "iNK cell induction from HSPC", "test": "Design of Experiment (DoE) I and β-mercaptoethanol test, day 6 to day 20", "settings": "for direction of effect in DoE I: differentiation and cell number at day 20", "protocol": "A design of Experiment (DoE) study was performed to determine the concentrations of zinc sulfate, β-mercaptoethanol, human serum, and glucose that would provide the most differentiation and increased number of cells at differentiation day 20. These factors were selected based on known chemical/biological effects of them in affect general cell proliferation and differentiation. Potential positive/negative involvement of β-mercaptoethanol, zinc ion, human serum, and glucose in NK cell or lymphocyte cell proliferation, killer cell receptor function, and cytotoxicity have been previously reported. There were no known studies conducted on testing optimal range of these factors in NK cell induction from HSPC.\nTo determine the effects of β-mercaptoethanol on differentiation, CD45+ and CD56+ expression was measured in cells cultured in Stempro34 media, DMEM/F12 media with low zinc, low human serum, and no β-mercaptoethanol (bME), or DMEM/F12 media with low zinc, low human serum, and 50 μM β-mercaptoethanol.\nA second DoE experiment (DoE II) was subsequently performed to further optimize the concentrations of zinc, β-mercaptoethanol, human serum albumin, and glucose."}, "CD45^+/CD56^+ cells": {"system": "CD45^+/CD56^+ cells", "test": "Stage II base media comparison (Stempro34 vs DMEM/F12 and others), Day 21 single cells", "protocol": "This Example investigates the use of various alternative base media that can be used for Stage II differentiation. […] The HSPC to iNK differentiation from day 6 further on was done in StemPro-34-based media (Table 12). […] In this Example, the […] until day 6 as described in Example 2 (i.e., steps 1-5). Each media was supplemented with 20 ng/mL IL7, 20 ng/mL IL15, 20 ng/mL SCF, 20 ng/mL Flt3lFlt3l and 5 ng/mL of IL-3 for days 6-14 and 20 ng/mL IL7, 20 ng/mL IL15, 20 ng/mL SCF, 20 ng/mL Flt3lFlt3l for days 14-21 of differentiation.\nDay 21 single cells were profiled for CD45^+/CD56^+, CD56^+/NKG2D^+, CD56^+/CD94^+, and CD56^+/CD16^+ expression (FIG. 12). […] The DMEM/F12 2:1 basal media was chosen due to its price and higher availability for scale up production."}}}
{"smiles": "Cc1cnc(-c2cnc(NCCNc3ccc(C#N)cn3)nc2-c2ccc(Cl)cc2Cl)[nH]1", "note": "[CHIR-99021, 6-[[2-[[4-(2,4-Dichlorophenyl)-5-(5-methyl-1H-imidazol-2-yl)-2-pyrimidinyl]amino]ethyl]amino]-3-pyridinecarbonitrile]", "values": [{"measurement": "single cells production and expansion", "setting": "CD56^+ cells; CHIR-99021 alone versus conditions with Activin A, data not shown", "result": "lower"}, {"measurement": "CD56^+ percentage, rank among conditions", "setting": "CD56^+ cells; day 28, StemPro-34-based media, condition #5", "result": "highest CD56^+ percentage"}, {"measurement": "amount giving the highest proportion of CD45^+CD56^+ cells", "setting": "CD45^+CD56^+ cells", "result": "moderate amount"}]}
{"smiles": "Cc1cc(-c2ccc(CC(=O)Nc3ccc(-c4cccnc4)cc3)cc2)ccn1", "note": "[WNT-C59]", "values": [{"measurement": "proportion of cells expressing non-NK lineage markers", "setting": "[1]", "result": "increased"}, {"measurement": "proportion of iNK that expressed the myeloid progenitor marker CD33", "setting": "[1]", "result": "altered"}]}
{"smiles": "O=S(=O)([O-])[O-].[Zn+2]", "note": "[Zinc sulfate]", "values": [{"measurement": "direction of effect in DoE I", "setting": "[2]", "result": "positive effect"}]}
{"smiles": "OCCS", "note": "[β-mercaptoethanol]", "values": [{"measurement": "CD45^+/CD56^+ cells", "setting": "CD45^+/CD56^+ cells; StemPro34, bME 55 μM, 1 μM, 0 μM (samples #1, #2, #3), day 21", "result": "60% to 90%"}, {"measurement": "effect on iNK differentiation", "setting": "CD45^+/CD56^+ cells; StemPro-based media, day 6 to day 21", "result": "prevented iNK differentiation"}, {"measurement": "effect on iNK cell induction (CD45+, CD56+ expression)", "setting": "[2]; 50 μM in DMEM/F12 with low zinc, low human serum", "result": "negative effect"}, {"measurement": "direction of effect in DoE I", "setting": "[2]", "result": "negative effect"}]}
